These results are taken from patent publication US12490760B2, “Compound and flavor-imparting composition using same” (T. HASEGAWA CO., LTD., priority 2021, dated 2025).

Data set [1] in a line: Detecting threshold concentration. The conditions noted are these: compared with citral.
Data set [2] can be described thus: Aroma properties: 1% ethanol solutions sniffed by panelists. To be noted: 1% ethanol solution; sniffed by 5 well-trained panelists; representative comments. The procedure:
An aroma of the present compound was evaluated by the following procedure. A 1% ethanol solution of the present invention product 1-1 was prepared and used as the present invention product 2-1. As a comparative reference to the present compound, a 1% ethanol solution of citral was prepared and used as the comparative product 2-1, and a 1% ethanol solution of 4,8-dimethylnona-3,7-dien-2-one was prepared and used as the comparative product 2-2. 5 well-trained panelists having 10 years or more of experience sniffed at the present invention product 2-1 and the comparative products 2-1 and 2-2, and commented on felt aromas.

Data set [3] in a line: Stability in sugar-acid solution, quantified by GC/MS internal standard method. To be noted: 0.1% in sugar-acid solution (7% granulated sugar, 0.12% citric acid); room temperature (25° C.), 8 weeks, light shielding. Type of data set: physicochemical. How it is done:
A stability of the present compound was evaluated by the following procedure. An aqueous solution including 7% granulated sugar and 0.12% citric acid (hereinafter, which may be referred to as a sugar-acid solution) was prepared. To this sugar-acid solution, the present invention product 1-1 was added so that the concentration was 0.1% to obtain the present invention product 3-1. As a comparative reference to the present compound, citral was added to a separately prepared sugar-acid solution so that the concentration was 0.1% to obtain the comparative product 3-1. Then, the present invention product 3-1 and the comparative product 3-1 were stored at room temperature (25° C.) for 8 weeks under light shielding. On the present invention product 3-1 and the comparative product 3-1, the present compound and citral were quantitatively analyzed by the internal standard method by using 2-chlorophenol as an internal standard substance under the following GC analysis conditions. The measurements were performed by using a GC/MS (apparatus name: GC 7890A/MSD 5975C, manufactured by Agilent Technologies Japan, Ltd.). […]

With `C=C(CCC=C(C)C)CC(C)=O` [present compound, 8-methyl-4-methylenenona-7-en-2-one], the detecting threshold concentration entry in data set [1] is listed as “the same level as that of citral”. Moreover, the “Comment (felt aromas)” value in data set [2] is listed as “does not have the aspect of floral aromas”. Also, the “concentration after storage relative to the initial concentration” value in data set [3] was 90%.

For the compound `CC(C)=CCCC(C)=CC=O` [citral, reference compound], the “concentration after storage relative to the initial concentration” value in data set [3] is given as “completely disappeared”.
